The nature of the test: Activity was evaluated by inhibition of the binding of 1 nM [3H]DPDPE at Opioid receptor delta 1 binding site.

Some results are limits rather than exact numbers.

What is called Ki is the equilibrium dissociation constant of an inhibitor or competing ligand from its target. High values mean a looser hold on the target, low ones a stronger hold on the target. Turning to `COCC12Cc3ccc(O)cc3C(C)(CCC1N)C2` (stereo unspecified) [10-Amino-9-methoxymethyl-1-methyl-tricyclo[7.3.1.0*2,7*]trideca-2,4,6-trien-4-ol], the Ki was determined as 0.467 µM. In other words, the sub-micromolar range.
The result for `CN(C)C1CCC2(C)CC1(C)Cc1ccc(O)cc12` (stereo unspecified) [10-Dimethylamino-1,9-dimethyl-tricyclo[7.3.1.0*2,7*]trideca-2,4,6-trien-4-ol] reads 10 µM; that for `CN(C)C1CCC2(C)CC1(CO)Cc1ccc(O)cc12` (stereo unspecified) [10-Dimethylamino-9-hydroxymethyl-1-methyl-tricyclo[7.3.1.0*2,7*]trideca-2,4,6-trien-4-ol], over 1000 µM.
The result for `CC12CCC(N)C(CO)(Cc3ccc(O)cc31)C2` (stereo unspecified) [10-Amino-9-hydroxymethyl-1-methyl-tricyclo[7.3.1.0*2,7*]trideca-2,4,6-trien-4-ol] reads over 1000 µM; that for `COC[C@]12Cc3ccc(O)cc3[C@](C)(CCc3nnnn31)C2` [1-methoxymethyl-9-methyl-(1S,9R)-2,3,4,5-tetraazatetracyclo[7.7.1.02,6.010,15]heptadeca-3,5,10(15),11,13-pentaen-12-ol], over 10 µM.
In the case of `COCC12Cc3ccc(O)cc3C(C)(CCC1N(C)C)C2` (stereo unspecified) [10-Dimethylamino-9-methoxymethyl-1-methyl-tricyclo[7.3.1.0*2,7*]trideca-2,4,6-trien-4-ol] it was 1.4 µM; in that of `CNCC12Cc3ccc(O)cc3C(C)(CCC1N)C2` (stereo unspecified) [10-Amino-1-methyl-9-methylaminomethyl-tricyclo[7.3.1.0*2,7*]trideca-2,4,6-trien-4-ol], 0.459 µM.
As to `CN1CNC2CCC3(C)CC2(Cc2ccc(O)cc23)C1` (stereo unspecified) [3,9-dimethyl-3,5-diazatetracyclo[7.7.1.01,6.010,15]heptadeca-10,12,14-trien-12-ol], the Ki came out at 0.863 µM.
The result for `CNC1CCC2(C)CC1(CO)Cc1ccc(O)cc12` (stereo unspecified) [9-Hydroxymethyl-1-methyl-10-methylamino-tricyclo[7.3.1.0*2,7*]trideca-2,4,6-trien-4-ol] reads over 1000 µM.
The result for `CN1CC23Cc4ccc(O)cc4C(C)(CCC12)C3` (stereo unspecified) [9,13-dimethyl-13-azatetracyclo[7.5.1.01,12.03,8]pentadeca-3,5,7-trien-6-ol] reads over 10 µM; that for `COC[C@]12Cc3ccc(O)cc3[C@](C)(CCCN1C)C2` [(1R,9R)-9-Methoxymethyl-1,10-dimethyl-10-aza-tricyclo[7.4.1.0*2,7*]tetradeca-2(7),3,5-trien-4-ol], over 5 µM.

Source of the values: BindingDB's records for doi:10.1021/jm950817g (Institute, 1996).
